Data taken from patent US10500169B2, “Supression of IgE production by compounds derived from traditional chinese medicine” (Sean N. Parker Foundation, priority 2014, dated 2019).

How the values were obtained:
GATA-3 = experiment: RT-PCR gene expression in stimulated PBMCs: GATA-3; format: cell-based, human; settings: 10 μg/mL
Experimental: (§1) Quantitative real time PCR was used to detect the epsilon germline transcription. Human PBMC cells (1.5×10^6 cells/mL) were co-incubated with DMF-C1 compound (10 μg/mL) at 37° C. under 5% CO2 for 4 days. Cells were then harvested and total RNA was isolated using Trizol reagent (Gibco BRL, Rockville, Md.) following the manufacturer's instructions. The RNA concentrations were then quantified by triplicate optical density (OD) readings (Bio-Rad SmartSpect 3000; Bio-Rad, Hercules, Calif.). The reverse transcription was performed to get the cDNA using ImProm-II™ Reverse Transcriptase (Promega Corporation, Madison, Wis.) as described by the manufacturer's instructions. The RT-PCR amplification was performed using Maxima™ SYBR Green qPCR Master Mix (2×) kit (Fisher Scientific, Pittsburgh, Pa.) with epsilon germline primers or GAPDH primers. The primer sequences were listed as εGLT forward: 5′-[…]-3′; εGLT reverse: 5′-[…]-3′; GAPDH-forward: 5′-[…]-3′; GAPDH-reverse: 5′-[…]-3′; STAT3-forward: 5′-[…]-3′; STAT3-reverse: 5′-[…]-3′; T-bet-forward: 5′-[…]-3′; T-bet-reverse: 5′-[…]-3′; IFN-γ-forward: 5′-[…]-3′; IFN-γ-reverse: 5′-[…]-3′; IL-10-forward: 5′-[…]-3′; IL-10-reverse: 5′-[…]-3′. IL-5-forward. 5′-[…] TGCA-3′; IL-5-reverse: 5′-[…]-3′. All primers were synthesized by Sigma-Aldrich Corporation (St. Louis, Mo.).

Foxp3 = experiment: RT-PCR gene expression in stimulated PBMCs: Foxp3; format: cell-based, human; settings: 10 μg/mL
Experimental: as §1

human PBMCs = experiment: Cell viability of human PBMC, trypan blue exclusion; format: cell-based; settings: any dose tested
Experimental: Cell viability was evaluated using a trypan blue exclusion as previously described. Briefly, a 10 μl of cells suspension from each culture was mixed with equal volume of trypan blue dye. The mixture was loaded into a hemocytometer and cells were counted under a microscope. The percentage of viable cells was calculated as follows: Viable cells (%)=(total number of viable cells)/(total number of cells)×100.

IFN-γ = experiment: RT-PCR gene expression in stimulated PBMCs: IFN-γ; format: cell-based, human; settings: 10 μg/mL
Experimental: as §1

phosphorylated-IκBα = experiment: In-Cell Western of phosphorylated IκBα in PBMCs; format: cell-based, human; settings: 10 μg/mL, vs non-treated stimulated cells
Experimental: PBMCs (1×10^5 cells/mL) were cultured with or without DMF-C1 (10 μg/mL) and stimulated with or without rIL-4 (100 ng/mL) and anti-CD40 (1 μg/mL) mAb for 10 days. In-Cell Western Assay (Li-Cor, Lincoln, Nebr.) was performed following the manufacturer's instructions. In brief, cells were incubated with antibodies against phosphorylated-IκBα (p-IκBα; Cell Signaling) and β-actin (Santa Cruz Biotechnology) overnight. After washing with 0.1% Tween PBS buffer, secondary antibodies IRDye800CW donkey anti-goat and IRDye680 donkey anti-rabbit (LI-Cor) were added and incubated at room temperature for 1 hour in the dark. Plates were scanned and analyzed with Odyssey CLx Infrared Imaging System.

IL-5 = experiment: RT-PCR gene expression in stimulated PBMCs: IL-5; format: cell-based, human; settings: 10 μg/mL
Experimental: as §1

U266 cells = experiment: IgE production by U266 myeloma cells, ELISA of supernatants; format: cell-based, human
Experimental: The IgE producing human U266 myeloma cell line (American Type Culture Collection; Rockville, Md.) has been used for screening pharmaceutical agents for IgE inhibitory effects, and thus this cell line was used to test the potential IgE inhibitory effects of herb extracts and purified compounds. Cells were cultured at 37° C. under 5% CO2 in complete media containing RPMI 1640 medium supplemented, 10% FBS, 1 mM sodium pyruvate, 1×10^-5 M β-ME and 0.5% penicillin-streptomycin. Cells were grown at an initial concentration of 2×10^5 cells/mL. FAHF-2 and B-FAHF-2, individual herb extracts and isolated compounds at different concentrations were added at day 0. Supernatants were harvested after 6 days culture, and IgE levels were determined by using an ELISA Kit (Mabtech Inc, OH). In each experiment, we run duplicate ELISA. In vitro experiments were repeated at least 3 times.
Human U266 myeloma cells (American Type Culture Collection; Rockville, Md.) were cultured in complete medium (RPMI 1640 medium supplemented, 10% FBS, 1 mM sodium pyruvate, 1×10^−5 M β-ME and 0.5% penicillin-streptomycin) at 37° C. under 5% CO2. Cells were grown at an initial concentration of 2×10^5 cells/mL with purpurin and alizarin from Rubia cordifolia L. at different concentrations (0.31, 0.62, 1.25, 2.5, 5 μg/mL), and with arctiin and arctigenin from Arctium lappa L. at different concentrations ([…]) for 6 days. The supernatants were harvested on day 6 for total IgE analysis using ELISA.

εGLT = experiment: RT-PCR of epsilon germline transcripts in PBMCs; format: cell-based, human; settings: 10 μg/mL, 4 days, vs untreated cultures
Experimental: as §1

B cells in Human PBMCs = experiment: Apoptosis by flow cytometry, annexin V staining of CD19 B cells in PBMCs; format: cell-based; settings: 10 μg/ml, 2 days incubation

Compound: COc1ccc2cc3[n+](cc2c1OC)CCc1cc2c(cc1-3)OCO2 [berberine]
- GATA-3 expression (GATA-3): No significant change
- mRNA level of Foxp3 (Foxp3): trend of increase
- cell viability of human PBMC (human PBMCs): not compromised
- mRNA level of IFN-γ (IFN-γ): trend of increase
- phosphorylated IκBα levels (phosphorylated-IκBα): significantly suppressed
- mRNA level of IL-5 (IL-5): significantly decreased
- inhibition at 20 µg/mL (U266 cells; Homo sapiens, U-266, 144 h, 20 μg/mL, 6 days): 94.6%
- IC50 (U266 cells; Homo sapiens, U-266, 144 h, 6 days culture, read-out: IC50 of inhibition of IgE production by U266 cells): 3.95 µg/mL
- effect on IgE production by U266 cells (in words) (U266 cells; different concentrations, 6 days): inhibited IgE production in a dose-dependent manner
- relative mRNA expression of εGLT (εGLT): significantly inhibited
- annexin V stained B cells (B cells in Human PBMCs): about 16%
